Test results from article PMC5974752, “Bax/Tubulin/Epithelial-Mesenchymal Pathways Determine the Efficacy of Silybin Analog HM015k in Colorectal Cancer Cell Growth and Metastasis” (Frontiers in Pharmacology, 2018).
Where two headings read alike, the source gives them in different places.

Key:
[1] = system: CHO; assay: MTT assay, normal cell line; assay type: cell-based, Chinese hamster; settings: Cricetulus griseus, 72 h incubation, mean ± SD of three experiments
Description: (§1) The 3-(4,5-dimethylthiazol-2-yl)-2,5-diphenyltetrazolium bromide (MTT) assay was used to determine the sensitivity of the different CRC cells to the novel silybin derivatives (Hussein et al., [2017]; Manivannan et al., [2017]). The cells were seeded at a density of 4,000–5,000 cells/well in 96 well plates and incubated with serial dilutions of the compounds (0, 0.1, 0.3, 1, 3, 10, 30, and 100 μM). The MTT dye (4 mg/ml) was added after 72 h of incubation and incubated with the cells for an additional 4 h at 37°C. Following incubation, the media was discarded and the formazan crystals were dissolved by adding 100 μL of DMSO to each well. A DTX 880 multimode detector (Beckman Coulter Life, Indianapolis IN, USA) was used to determine the absorbance readings at a wavelength of 570 nm. The IC50 values were determined based on 3 separate experiments, with each experiment done in triplicate. The selectivity of the compounds was determined by comparing their cytotoxicity for CRC to normal epithelial cell lines (CHO, and CRL1459).

[2] = system: LOVO cells; assay: Wound healing assay; assay type: cell-based, human; settings: 2 and 4 μM, 24 h and 48 h, vs vehicle
Description: In brief, the metastatic CRC cells (LOVO) were seeded in 6 well plates and allowed to grow as a monolayer until they reached 100% confluence. Upon confluence, 200 μl sterile tips were used to create a wound by gentle scratching of the complete cell monolayer. Sterile PBS was used to wash the cells several times to remove any floating cells. Different concentrations of the test compound were prepared in the culture media and added immediately after wound formation. The closure of the wound was observed by taking pictures at different time points by an EVOS microscope. Finally, the area of the wounds at different time points was calculated using Image J software (NIH, Bethesda, Maryland, USA).

[3] = system: CRC cell lines (HCT116, LOVO, and S1); assay: MTT assay, CRC cell lines together; assay type: cell-based, human; settings: MTT
Description: as §1

[4] = system: LOVO cells; assay: Transwell migration assay; assay type: cell-based, human; settings: 2 and 4 μM, 24 h, vs vehicle
Description: The effect of compound 15k on the invasiveness of LOVO was tested using 24 trans-well inserts with an […]. The addition of the insert to the well forms two chambers (upper and lower), where the upper chamber was used to grow the cells on the porous membrane. The lower chamber was filled with 600 μl of cell-free DMEM medium. A 200 μl of cell suspension was added to each insert and allowed to attach for 1 h. The test compound was added in different concentrations and incubated with the cells for 24 h. […] Finally, the remaining migrated cells were fixed by methanol and dyed with 0.1% crystal violet dye and observed with an EVOS microscope. The number of migrated cells was counted and compared between the treated and control cells.

[5] = system: PARP; assay: Western blot in HCT116 cells (nuclear fraction); assay type: cell-based, human; settings: 4 μM, vs control
Description: HCT116 cells were lysed to obtain cytoplasmic and nuclear protein fractions, according to the protocol used in previous publications (Alhadidi and Shah, [2017]). Briefly, the cells were seeded in and incubated with 15k for overnight at 4μM. The cells were washed using ice-cold PBS and scraped using a cell scraper and collected in 15ml tubes. The cells were centrifuged and the PBS was discarded and replaced with 400 μl of buffer A (10 mM HEPES, pH 7.9, 0.1 mM EDTA, 0.1 mM EGTA, 10 mM KCl, 1 mM dithiothreitol, and 0.5 mM phenylmethylsulfonyl fluoride) in each tube. The cells were allowed to swell under in the buffer for 15 min on ice. Subsequently, 0.1% Nonidet P-40 was added to each suspension for 1 min to disturb the plasma membrane. The nuclei were precipitated by centrifugation at 13,000 rpm for 1 min at 4°C. The cytoplasmic proteins were collected in the supernatant and stored at −80°C. Two hundred μl of Buffer B (20 mM HEPES, pH 7.9, 1 mM EDTA, 1 mM EGTA, 400 mM NaCl, 1 mM dithiothreitol, and 1 mM phenylmethylsulfonyl fluoride) was added to the pellets and left for 30 min on ice with periodic mixing. […] The bicinchoninic acid (BCA) quantification assay was used to determine the concentration of protein in the cell extracts. […] Finally, proteins were quantified using the image J software. Data were calculated as ratios to β-actin.

[6] = system: HCT116; assay: MTT assay; assay type: cell-based, human; settings: Homo sapiens, HCT-116, MTT
Description: as §1

[7] = system: E-cadherin; assay: Immunofluorescence staining in HCT116 cells; assay type: cell-based, human; settings: 2 μM p < 0.05, 4 μM p < 0.001, 24 h
Description: (§2) HCT116 cells were used to ascertain the action of compound 15k on α-tubulin, E-cadherin and β-catenin. The cells were seeded on to culture glass covers inserted in 6 well plates. The compound was added at 0, 2, and 4μM and incubated with the cells overnight at 37°C. Paraformaldehyde (4%) was used for cell fixation, followed by permiabilization with 0.3% triton 100× in PBS for 25 min. The cells were blocked with 3% BSA in PBS for 30 min. The α-tubulin, E-cadherin, or β-catenin rabbit antibodies in the correct dilution were added, followed by fluorescent anti-rabbit secondary antibody in the same manner. The nuclei were stained with the nuclear dye, DAPI, for 15 min. The EVOS cell imaging system was used to detect the fluorescence from each slide.

[8] = system: β-catenin; assay: Immunofluorescence staining in HCT116 cells; assay type: cell-based, human; settings: 2 and 4 μM, p < 0.01 vs vehicle
Description: as §2

[9] = system: α-tubulin; assay: Immunofluorescence staining in HCT116 cells; assay type: cell-based, human; settings: 2 or 4 μM, overnight, p < 0.001 vs control
Description: as §2

O=C(/C=C/c1cccc(OCc2ccccc2)c1)c1ccc(O)cc1 [Compound 15k]
IC50 [1]: 8100 ± 1200 nM | cell migration, wound closure [2]: migrated significantly slower | IC50 ([3]; Homo sapiens, range over HCT116, S1 and LOVO, read-out: IC50 in the CRC cells): 1000 to 2000 nM | selectivity, CRC cells compared to normal cells ([3]; vs CRL1459 and CHO): selectively cytotoxic | number of cells migrated through transwell [4]: significantly decreased the number of LOVO cells that migrated | total PARP [5]: significantly reduced | IC50 ([6]; 72 h incubation, mean ± SD of three experiments, read-out: IC50 ± SD, Colon HCT116): 900 nM | IC50 ([6]; comparison with knockout cells, read-out: IC50, HCT116 wild type): 890 nM | E-cadherin expression (immunostaining) [7]: significantly increased | level of β-catenin available for nuclear translocation (immunostaining) [8]: significant decrease | α-tubulin green fluorescence [9]: significant reduction
